The source of these data is US5811442A, “Pharmaceutical compositions for the treatment of conditions associated with decreased blood flow” (priority 1997, dated 1998).

Usually EC50 stands for the concentration giving half of the maximal effect. Usually Ki stands for the dissociation constant of the complex between target and ligand, obtained from inhibition or displacement.

Molecules are shown by their SMILES. Like-named read-outs stand apart in the source and are kept apart here. Where only a bound is given, the exact number is not on record here.

In assay [1] the test system is β2-containing nicotinic acetylcholine receptor subtypes. Description: Determination of Dopamine Release (synaptosomes). Type of assay: cell-based. Particulars: for EC50: read-out: Dopamine Release EC50. From the text: Determination of Dopamine Release
Reported EC50 is expressed in nM and Emax represents the amount released relative to nicotine.

The subject of a further assay is ganglionic receptors. Description: Determination of Interaction with Ganglia (maximal activation of ganglionic receptors). The format is cell-based. The note with it: percentage of the maximal activation induced by (S)-(-)-nicotine. From the text: Typical ganglionic receptors include α3β4 receptor subtypes, (i.e., non-β2 containing receptor subtypes).
Determination of Interaction with Ganglia
The ganglionic tissues employed are representative of those which are believed absent of receptor subtypes containing β2-subunits.

For another assay, the target named is T1, muscle receptors (Homo sapiens, UniProt P02708+P07510+Q07001).
T1 construct: endogenous in cells
Briefly: cell-based. Particulars: for Muscle Effect (Emax): percentage of the maximal activation induced by (S)-(-)-nicotine; for Emax: read-out: Muscle Effect (Emax). The format is cell-based. From the text:
Determination of Interaction with Muscle
The muscle tissues employed are representative of those which are believed absent of receptor subtypes containing β2-subunits.

A further assay deals with T2, α4β2 receptor subtypes (Rattus norvegicus, UniProt P09483+P12390).
T2 construct: from tissue
Briefly: Determination of Binding to Relevant Receptor Sites. Particulars: calculated from IC50 values using the method of Cheng et al. The source says:
Receptor binding constants provide a measure of the ability of the compound to bind to relevant receptor sites of certain cells of the patient.
Determination of Binding to Relevant Receptor Sites

The test system of assay [2] is nicotinic acetylcholine receptor subtypes including β2-subunits. Particulars: reported; cited from earlier work.
[3] abbreviates: read-out: Dopamine Release Emax.
[4] abbreviates: read-out: Dopamine Release Emax, percentage of release obtained with (S)-(-)-nicotine concentration resulting in maximal effects.

T1 sequence (P02708 21-457): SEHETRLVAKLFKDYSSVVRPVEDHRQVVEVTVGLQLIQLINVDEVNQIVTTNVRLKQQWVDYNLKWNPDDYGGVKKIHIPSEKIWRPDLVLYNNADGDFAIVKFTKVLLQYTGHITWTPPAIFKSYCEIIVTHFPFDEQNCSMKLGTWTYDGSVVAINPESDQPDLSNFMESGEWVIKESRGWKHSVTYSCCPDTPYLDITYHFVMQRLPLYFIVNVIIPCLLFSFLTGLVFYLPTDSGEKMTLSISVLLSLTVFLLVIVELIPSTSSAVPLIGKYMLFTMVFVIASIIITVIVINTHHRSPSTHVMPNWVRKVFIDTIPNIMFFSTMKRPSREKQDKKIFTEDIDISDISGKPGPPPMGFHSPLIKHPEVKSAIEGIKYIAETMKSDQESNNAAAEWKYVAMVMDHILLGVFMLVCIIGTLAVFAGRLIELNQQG
T1 sequence (P07510 23-517): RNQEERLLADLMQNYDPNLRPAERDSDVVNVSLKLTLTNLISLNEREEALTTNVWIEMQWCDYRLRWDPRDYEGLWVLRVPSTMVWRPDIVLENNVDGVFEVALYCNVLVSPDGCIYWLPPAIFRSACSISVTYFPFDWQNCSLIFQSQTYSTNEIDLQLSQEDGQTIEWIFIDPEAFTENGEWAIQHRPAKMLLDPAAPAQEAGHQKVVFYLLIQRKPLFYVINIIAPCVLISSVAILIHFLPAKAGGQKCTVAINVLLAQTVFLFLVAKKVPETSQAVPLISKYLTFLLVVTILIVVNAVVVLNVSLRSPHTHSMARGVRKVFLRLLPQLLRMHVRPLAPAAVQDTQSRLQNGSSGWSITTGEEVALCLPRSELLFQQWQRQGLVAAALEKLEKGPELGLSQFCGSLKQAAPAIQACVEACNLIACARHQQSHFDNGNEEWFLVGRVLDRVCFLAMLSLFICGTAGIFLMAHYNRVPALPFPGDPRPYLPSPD
T1 sequence (Q07001 22-517): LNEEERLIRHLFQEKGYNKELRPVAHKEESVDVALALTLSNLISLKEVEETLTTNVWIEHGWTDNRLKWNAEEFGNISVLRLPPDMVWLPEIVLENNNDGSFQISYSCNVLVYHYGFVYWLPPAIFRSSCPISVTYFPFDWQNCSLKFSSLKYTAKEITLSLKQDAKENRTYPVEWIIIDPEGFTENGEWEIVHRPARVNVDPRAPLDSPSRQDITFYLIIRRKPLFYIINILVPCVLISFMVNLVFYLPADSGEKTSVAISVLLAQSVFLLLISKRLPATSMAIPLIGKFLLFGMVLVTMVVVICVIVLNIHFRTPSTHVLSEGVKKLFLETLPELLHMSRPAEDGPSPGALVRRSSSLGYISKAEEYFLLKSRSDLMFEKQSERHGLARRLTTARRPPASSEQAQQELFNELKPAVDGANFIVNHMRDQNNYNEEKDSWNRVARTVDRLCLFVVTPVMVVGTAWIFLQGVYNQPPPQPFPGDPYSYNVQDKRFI
T2 sequence (P09483 31-630): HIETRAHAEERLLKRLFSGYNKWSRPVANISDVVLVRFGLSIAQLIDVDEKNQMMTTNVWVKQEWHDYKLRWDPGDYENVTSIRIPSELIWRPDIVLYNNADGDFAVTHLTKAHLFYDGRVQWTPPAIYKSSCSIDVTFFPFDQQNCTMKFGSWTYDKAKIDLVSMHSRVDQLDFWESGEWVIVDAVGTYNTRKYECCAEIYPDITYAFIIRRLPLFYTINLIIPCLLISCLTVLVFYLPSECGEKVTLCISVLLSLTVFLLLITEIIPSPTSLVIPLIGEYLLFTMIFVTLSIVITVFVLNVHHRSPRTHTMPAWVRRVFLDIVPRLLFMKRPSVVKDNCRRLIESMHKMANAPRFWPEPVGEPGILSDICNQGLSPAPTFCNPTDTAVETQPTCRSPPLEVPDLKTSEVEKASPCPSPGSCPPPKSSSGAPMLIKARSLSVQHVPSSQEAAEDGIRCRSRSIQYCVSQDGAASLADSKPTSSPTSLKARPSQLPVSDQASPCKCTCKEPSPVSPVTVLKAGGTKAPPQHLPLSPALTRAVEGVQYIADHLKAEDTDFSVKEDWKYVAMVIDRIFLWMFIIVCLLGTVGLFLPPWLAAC
T2 sequence (P12390 25-500): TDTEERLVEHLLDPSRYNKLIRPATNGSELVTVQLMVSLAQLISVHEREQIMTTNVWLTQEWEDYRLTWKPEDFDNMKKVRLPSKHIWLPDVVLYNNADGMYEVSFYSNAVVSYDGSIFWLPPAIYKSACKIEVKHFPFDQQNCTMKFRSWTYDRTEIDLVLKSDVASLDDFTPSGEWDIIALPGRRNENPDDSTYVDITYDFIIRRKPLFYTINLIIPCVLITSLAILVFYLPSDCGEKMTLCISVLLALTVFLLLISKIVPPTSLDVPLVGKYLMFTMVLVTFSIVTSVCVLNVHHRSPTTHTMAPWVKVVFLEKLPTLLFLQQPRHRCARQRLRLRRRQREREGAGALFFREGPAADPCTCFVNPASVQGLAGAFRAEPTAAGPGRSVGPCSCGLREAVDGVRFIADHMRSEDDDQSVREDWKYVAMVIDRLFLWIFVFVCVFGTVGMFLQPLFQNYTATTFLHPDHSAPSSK

Regarding `CNCC/C=C/c1ccc(C)nc1` [Sample No. 1, (E)-N-methyl-4[3-(6-methylpyridin)yl]-3-buten-1-amine monofumarate], the EC50 in assay [1] came out at 10000 nM. The Emax in assay [1] (setting [3]) was 115%. Moreover, the “Ganglion Effect (Emax)” value in the assay on ganglionic receptors worked out at 4 % nicotine.

Take `CNCC/C=C/c1cncc(-c2ccccc2)c1` [Sample No. 3, (E)-N-Methyl-4-[3-(5-phenylpyridin)yl]-3-buten-1-amine]: in assay [1], the EC50 is more than 100000 nM. For the same compound, the Emax in assay [1] (setting [4]) was more than 160%. The “Muscle Effect (Emax)” value at muscle receptors is on record as 8 % nicotine. Besides, in the assay with ganglionic receptors, the “Ganglion Effect (Emax)” value was determined as 0 % nicotine.

For `COc1cncc(/C=C/CCN)c1` [Sample No. 4, (E)-4-[3-(5-methoxypyridin)yl]-3-buten-1-amine monofumarate], the EC50 in assay [1] is 3800 nM. For the same compound, the “Ganglion Effect (Emax)” value in the assay with ganglionic receptors amounted to 0 % nicotine.

As for `CNCC/C=C/c1cncc(N)c1` [Sample No. 5, (E)-N-methyl-4-[3-(5-aminopyridin)yl]-3-buten-1-amine], the EC50 in assay [1] came out at 2000 nM. In assay [1] (setting [4]), the Emax came out at 85%. Besides, the “Muscle Effect (Emax)” value on muscle receptors is 4 % nicotine. Besides, in the assay with ganglionic receptors, the “Ganglion Effect (Emax)” value is reported as 4 % nicotine.

`CNCC/C=C/c1cncc(OCc2ccccc2)c1` [Sample No. 6, (E)-N-Methyl-4-[3-(5-benzyloxypyridin)yl]-3-buten-1-amine]: in assay [1], the EC50 is 4000 nM. For the same compound, the Emax in assay [1] (setting [4]) was 33%. In addition, at muscle receptors, the “Muscle Effect (Emax)” value came to 12 % nicotine. In addition, in the assay on ganglionic receptors, the “Ganglion Effect (Emax)” value is recorded as 0 % nicotine.

Regarding `CNCC/C=C/c1cncc(Br)c1` [Sample No. 7, (E-N-methyl-4-[3-5-bromopyridin)yl]-3-buten-1-amine monofumarate], the Ki at α4β2 receptor subtypes is 79 nM. Besides, the half-maximal effective concentration (EC50) in assay [1] is 2400 nM. Besides, the Emax in assay [1] (setting [4]) is 107%; at muscle receptors it was 8%. Moreover, in the assay on ganglionic receptors, the “Ganglion Effect (Emax)” value was determined as 11 % nicotine.

Consider `CNCC/C=C/c1cncc(OC)c1` [Sample No. 8, (E)-N-methyl-4-[3-(5-methoxypyridin)yl]-3-butene-1-amine], for which the inhibition constant Ki on α4β2 receptor subtypes is 10 nM. In addition, the EC50 in assay [1] turned out to be 191 nM. The Emax in assay [1] (setting [4]) came to 103%. At muscle receptors, the “Muscle Effect (Emax)” value is recorded as 0 % nicotine. The “Ganglion Effect (Emax)” value with ganglionic receptors worked out at 0 % nicotine.

Consider `CCOc1cncc(/C=C/CCNC)c1` [Sample No. 9, (E)-N-methyl-4-[3-(5-ethoxypyridin)yl]-3-butene-1-amine], for which the inhibition constant Ki on α4β2 receptor subtypes was 9 nM. Moreover, the 50% effective concentration (EC50) in assay [1] (dopamine release) was found to be 287 nM. In addition, in assay [1] (percentage of release obtained with (S)-(-)-nicotine concentration resulting in maximal effects), the “Dopamine Release Emax” value came out at 124%. Also, on muscle receptors, the “Muscle Effect (Emax)” value is listed as 0 % nicotine. In the assay on ganglionic receptors, the “Ganglion Effect (Emax)” value is 0 % nicotine.

For `CNC(C)C/C=C/c1cccnc1` (stereo not shown) [Sample No. 10, (E)-N-methyl-5-(3-pyridinyl)-4-penten-2-amine], at α4β2 receptor subtypes, the inhibitory constant (Ki) was 82 nM. Besides, the 50% effective concentration (EC50) in assay [1] was determined as 21400 nM. In addition, the Emax in assay [1] (setting [4]) is 182%. The “Muscle Effect (Emax)” value on muscle receptors is reported as 4 % nicotine. Moreover, the “Ganglion Effect (Emax)” value with ganglionic receptors is recorded as 6 % nicotine.

In the case of `CNCC/C=C/c1cncnc1` [Sample No. 11, (E)-N-methyl-4-(5-pyrimidinyl)-3-buten-1-amine], the Emax at muscle receptors was 12%. In the assay on ganglionic receptors, the “Ganglion Effect (Emax)” value is listed as 0 % nicotine.

As to `CNCC/C=C\c1cccnc1` [Sample No. 12, (Z)-metanicotine monofumarate], in assay [1], the half-maximal effective concentration (EC50) worked out at 8310 nM. Moreover, the Emax in assay [1] (setting [3]) was determined as 96%.

Regarding `NCC/C=C/c1cncc(Br)c1` [Sample No. 13, (E)-4-[3-(5-Bromopyridin)yl]-3-buten-1-amine Hemifumarate], the Ki on α4β2 receptor subtypes is 707 nM. Also, the concentration for a half-maximal effect (EC50) in assay [1] was found to be 49 nM. Also, the figures for the Emax (in assay [1] (setting [4]); at muscle receptors) were 29% and 5%, respectively. Further, the “Ganglion Effect (Emax)” value in the assay with ganglionic receptors is reported as 0 % nicotine.

Regarding `CNCC/C=C/c1cccnc1` [Sample No. 14, (E)-metanicotine monofumarate], the concentration giving a half-maximal response (EC50) in assay [1] was 1020 nM. The Emax in assay [1] (setting [3]) came to 90%.

As for `CNCC/C=C/c1cncc(Oc2ccccc2)c1` [Sample No. 15, (E)-N-Methyl-4-[3-(5-phenoxypyridin)yl]-3-buten-1-amine], the EC50 in assay [1] was 114 nM. The Emax in assay [1] (setting [4]) turned out to be 14%. Moreover, the “Muscle Effect (Emax)” value on muscle receptors is listed as 5 % nicotine. The “Ganglion Effect (Emax)” value with ganglionic receptors is on record as less than 15 % nicotine.

For the compound `CNCC/C=C/c1cncc(OC(C)C)c1` [Sample No. 16, (E)-N-Methyl-4-[3-(5-isopropoxypyridin)yl]-3-buten-1-amine], the EC50 in assay [1] turned out to be 51 nM. Also, the Emax in assay [1] (setting [4]) amounted to 57%. Besides, the “Muscle Effect (Emax)” value at muscle receptors is 8 % nicotine. Besides, in the assay on ganglionic receptors, the “Ganglion Effect (Emax)” value is reported as less than 15 % nicotine.

As for `CNCC/C=C/c1cncc(COC)c1` [Sample No. 17, (E)-N-Methyl-4-[3-(5-methoxymethylpyridin)yl]-3-buten-1-amine], the concentration giving a half-maximal response (EC50) in assay [1] amounted to 16000 nM. Further, the Emax in assay [1] (setting [4]) is 46%. Also, the “Muscle Effect (Emax)” value on muscle receptors stood at 13 % nicotine. Also, the “Ganglion Effect (Emax)” value in the assay with ganglionic receptors worked out at 0 % nicotine.

Take `NCC/C=C/c1cccnc1.O=C(O)/C=C/C(=O)O.O=C(O)/C=C/C(=O)O` [Sample No. 18, (E)-4-(3-pyridinyl)-3-buten-1-amine difumarate]: in assay [1], the EC50 is 5020 nM. The Emax in assay [1] (setting [4]) was found to be 81%. Also, the “Muscle Effect (Emax)” value at muscle receptors turned out to be 15 % nicotine. Moreover, the “Ganglion Effect (Emax)” value in the assay with ganglionic receptors is 23 % nicotine.

For `CCOc1cncc(/C=C/CCNC)c1` [Sample No. 19, (E)-N-Methyl-4-[3-(5-ethoxypyridin)yl]-3-buten-1-amine sesquifumarate], the concentration giving a half-maximal response (EC50) in assay [1] (dopamine release) is 276 nM. Besides, the “Muscle Effect (Emax)” value on muscle receptors is 3 % nicotine. For the same compound, the “Ganglion Effect (Emax)” value in the assay with ganglionic receptors is less than 15 % nicotine.

With `CN1CCC[C@H]1c1cccnc1` [Sample No. C-1, (S)-(-)-nicotine, reference compound], the Emax in assay [1] (setting [3]) stood at 100%. Also, in the assay on ganglionic receptors, the “Ganglion Effect (Emax)” value stood at 100 % nicotine. The “affinity to bind to nicotinic acetylcholine receptor subtypes (in words)” value in assay [2] is listed as “demonstrated affinity to bind to numerous nicotinic acetylcholine receptor subtypes including β2-subunits”.
